Tested on: KBM7 WT cells (global proteome)
Test: Quantitative expression proteomics (TMT isobaric tagging), drug vs DMSO
Type: cell-based, human
Description: The mechanism by which the assayed molecules re-program a functional CRL4B complex based on the data shown could be that drug binding to CUL4B recruits a neo-substrate directly to the cullin backbone. Alternatively, drug binding could stabilize CUL4B function to boost time intervals where a functionally competent CUL4B complexes can be formed. Here, the word “functional” implies that the CUL4B backbone of this complex needs to be neddylated, and a CUL4B associated E2 ubiquitin-conjugating enzyme (UBE2G1) needs to be bound. FIG. 9 outlines one possible mechanism. Both predicted mechanisms of action would result in a functionally altered CRL4B complex, and thus an altered stability of drug-induced (neo-) substrates. In order to identify target proteins with a decreased abundance or, in other words, target proteins that become degraded by CRL4B after drug treatment, global proteome composition was measured using quantitative expression proteomics (TMT-labeling). In brief, KBM7 cells were drug treated for 12 hours, lysed, and subjected to isobaric tagging. Ensuing proteomics analysis quantified a total of 7,903 proteins at a minimum spectral count of 2. […] Data on essentiality are taken from Hart et al., G3, August 2017 (PMID: 28655737).
50×10^6 KBM7^WT cells per condition were collected, washed four times with ice-cold PBS, the supernatant aspirated and pellets snap-frozen in liquid N2. Each washed cell pellet was lysed separately in 40 μL of freshly prepared lysis buffer as previously described (see Mayor-Ruiz et al., Mol Cell 2019)
Offline Fractionation via RP-HPLC at high pH and 2D-RP/RP Liquid Chromatography Mass Spectrometry were performed as previously described (see Mayor-Ruiz et al., Mol Cell 2019).
Acquired raw data files were processed using the Proteome Discoverer 2.2.0 platform, utilizing the Sequest HT database search engine and Percolator validation software node (V3.04) to remove false positives with a false discovery rate (FDR) of 1% on peptide and protein level under strict conditions. Searches were performed with full tryptic digestion against the human SwissProt database v2017.06 with up to two allowed miscleavage sites. Oxidation (+15.9949 Da) of methionine was set as variable modification, whilst carbamidomethylation (+57.0214 Da) of cysteine residues and TMT 6-plex labelling of peptide N-termini and lysine residues were set as fixed modifications. Data was searched with mass tolerances of ±10 ppm and ±0.02 Da on the precursor and fragment ions, respectively. Results were filtered to include peptide spectrum matches (PSMs) with Sequest HT cross-correlation factor (Xcorr) scores of […] and high peptide confidence assigned by Percolator. MS^2 signal-to-noise values (S/N) values of TMT reporter ions were used to estimate peptide/protein abundance changes. PSMs with precursor isolation interference values of ≥ 50% and average TMT-reporter ion S/N≤10 were excluded from quantitation. Only unique peptides were used for TMT quantitation as well as for TOP3 label-free quantitation. Isotopic impurity correction and TMT channel-normalization based on total peptide amount were applied. For statistical analysis and p-value calculation, the integrated ANOVA hypothesis test was used. TMT ratios with p-values below 0.01 were considered as significant. Only proteins with >1 peptide detected and >1 unique peptide detected were considered for further analysis. For the calling of destabilized proteins, a log 2 fold change threshold (drug/DMSO) of −0.3 was applied.
Comparison of overall proteome-wide changes in KBM7 cells treated with IC020772.1 (2.5 μM), IC021313.2 (7 μM) or T6938051 (3.5 μM) for 5 h and 12h, using quantitative proteomics based on isobaric tagging.
The protein names in Table 4, Table 5 and Table 6 refer to the protein names as provided by HUGO Gene Nomenclature Committee (HGNC) database. […]

**Q.** How did the “number of proteins significantly downregulated (log2FC < -0.3), destabilized proteins” value (KBM7 cells, 12 hours, ~10xEC50, 7,903 proteins quantified) turn out when `Cc1ccc(C(=O)N2CSCC2C(=O)N=c2[nH]cc(C)s2)o1` (centres unmarked) [Compound T6938051] was run?
**A.** 793

**Q.** What about the “number of downregulated proteins known to be implicated in KBM7 proliferation (essential for KBM7 viability)” value (KBM7 cells, 12 hours, essentiality from Hart et al. 2017) of the same molecule?
**A.** 142

**Q.** And the “number of proteins with log2FC < −0.3” value (T6938051 vs DMSO)?
**A.** T6938051: 793 proteins

**Q.** And the “number of essential proteins among proteins with log2FC < −0.3” value (T6938051 vs DMSO, essential = implicated in KBM7 proliferation)?
**A.** log2FC < −0.3 (142 essential proteins)

**Q.** What about the “log2FC (T6938051/DMSO)” value (protein ABCF2 (accession Q9UG63-2), expression proteomics, drug vs DMSO, essential: false) of the same molecule?
**A.** −0.3004
